The values below come from ChEMBL document CHEMBL3576867, “Cytotoxic activity of rearranged drimane meroterpenoids against colon cancer cells via down-regulation of β-catenin expression” (J Nat Prod, 2015).

The structures appear in SMILES notation. Activity calls are given as the source filed them. The rule behind the calls is not given here.

The test system of assay [1] is HEK293. The assay is described as follows: Inhibition of Wnt/beta-catenin pathway in HEK293 cells assessed as downregulation of Wnt3a-CM-activated beta-catenin expression at 10 to 40 uM after 15 hrs by Western blot analysis. It is filed as cell-based. The conditions noted are these: Homo sapiens.
The test system of assay [2] is HEK293. Briefly: Inhibition of Wnt/beta-catenin pathway in HEK293 cells assessed as decrease in Wnt3a-CM-induced beta-catenin response regulated transcription level at 10 to 40 uM after 15 hrs by TOPflash reporter gene assay. It is filed as cell-based. The conditions noted are these: Homo sapiens.
In assay [3] the test system is SW480. The assay is described as follows: Cytotoxicity against human SW480 cells assessed as growth inhibition at >20 uM after 48 hrs by Cell-Titer-Glo assay. In kind it is functional, cell-based.
Assay [4] relates to HCT-116. The assay is described as follows: Cytotoxicity against human HCT116 cells assessed as growth inhibition at >20 uM after 48 hrs by Cell-Titer-Glo assay. In kind it is functional, cell-based.
Assay [5] has as its system HEK293. The assay is described as follows: Inhibition of Wnt/beta-catenin pathway in HEK293 cells assessed as downregulation of Wnt3a-CM-activated beta-catenin expression at 1.5 to 6 uM after 15 hrs by Western blot analysis. It is filed as cell-based. The conditions noted are these: Homo sapiens. For orientation: In western blotting, separated proteins are transferred to a membrane and probed.

In assay [6] the test system is HEK293. Briefly: Inhibition of Wnt/beta-catenin pathway in HEK293 cells assessed as decrease in Wnt3a-CM-induced beta-catenin response regulated transcription level at 10 to 40 uM after 15 hrs by TOPflash reporter gene assay in presence of 5-epi-nakijinone. It is filed as cell-based. The conditions noted are these: Homo sapiens. Background: In a reporter assay the amount or activity of a reporter protein is the signal.

The subject of assay [7] is SW480. The assay is described as follows: Cytotoxicity against human SW480 cells assessed as growth inhibition at >20 uM after 48 hrs by Cell-Titer-Glo assay in presence of 5-epi-nakijinone. In kind it is functional, cell-based.
The test system of assay [8] is HCT-116. The assay is described as follows: Cytotoxicity against human HCT116 cells assessed as growth inhibition at >20 uM after 48 hrs by Cell-Titer-Glo assay in presence of 5-epi-nakijinone. In kind it is functional, cell-based.
In assay [9] the test system is HEK293. The assay is described as follows: Inhibition of Wnt/beta-catenin pathway in HEK293 cells assessed as downregulation of Wnt3a-CM-activated beta-catenin expression at 10 to 40 uM after 15 hrs by Western blot analysis in presence of 5-epi-nakijinone. It is filed as cell-based. The conditions noted are these: Homo sapiens.
In assay [10] the test system is SW480. The assay is described as follows: Cytotoxicity against human SW480 cells assessed as growth inhibition after 48 hrs by Cell-Titer-Glo assay. It is filed as functional, cell-based. The conditions noted are these: SW480, 48 h.
Assay [11] relates to HCT-116. The assay is described as follows: Cytotoxicity against human HCT116 cells assessed as growth inhibition after 48 hrs by Cell-Titer-Glo assay. It is filed as functional, cell-based. The conditions noted are these: HCT-116, 48 h.
Assay [12] deals with HEK293. The assay is described as follows: Inhibition of Wnt/beta-catenin pathway in HEK293 cells assessed as decrease in Wnt3a-CM-induced beta-catenin response regulated transcription level at 1.5 to 6 uM after 15 hrs by TOPflash reporter gene assay. The conditions noted are these: Homo sapiens. It is filed as cell-based.

With `C=C1CCC[C@H]2[C@](C)(Cc3c(O)c(OC)cc4nc(C)oc34)[C@@H](C)CC[C@@]12C`, the inhibition result in the assay with HEK293 [1] and with HEK293 [2] was “Active” throughout. Also, the “growth inhibition (GI)” value in the assay with SW480 [3] and with HCT-116 [4] was “Active” throughout.

`C=C1CCC[C@H]2[C@](C)(CC3=C4OC(C)(C)N=C4C=C(OC)C3=O)[C@@H](C)CC[C@]12C`: the inhibition result in the assay on HEK293 [5] and in the assay with HEK293 [6] was “Active” in each case. Further, the “growth inhibition (GI)” value with SW480 [7] and with HCT-116 [8] was “Active” in each case.

Usually IC50 stands for the point on the concentration scale where inhibition reaches its midpoint. Regarding `C=C1CCC[C@H]2[C@](C)(CC3=C(O)C(=O)C=C(OCC)C3=O)[C@@H](C)CC[C@@]12C`, the inhibition entry with HEK293 [9] and with HEK293 [12] was “Active” throughout. Besides, the IC50 is 3.24 µM in the assay with SW480 [10] and 2.95 µM in the assay with HCT-116 [11].
